# Assays:
# Assay type in all cases: cell-based
# [1] = system: Mycobacterium smegmatis ATCC 19420; assay: Broth microdilution MIC, M. smegmatis; conditions: Mycolicibacterium smegmatis, ATCC19420, M. smegmatis ATCC 19420; read-out: MIC Mycobacterium smegmatis ATCC 19420
# Source text: MICs in Mycobacterium smegmatis ATCC 19420 and Mycobacterium smegmatis ATCC 19420 derivatives were quantified using broth microdilution assays as described [Clinical and Laboratory Standards Institute (CLSI/NCCLS) (2009) Methods for Dilution Antimicrobial Susceptibility Tests for Bacteria That Grow Aerobically; Approved Standard, Eighth Edition. CLIS Document M07-A8 (CLIS, Wayne Pa.)].
# [2] = system: Mycobacterium tuberculosis H37Rv; assay: Microplate Alamar Blue assay (MABA) MIC, M. tuberculosis; conditions: read-out: MIC Mycobacterium tuberculosis H37Rv
# Source text: (§1) Minimal inhibitory concentrations (MICs) in Mycobacterium tuberculosis H37Rv and Mycobacterium avium ATCC 25291 were quantified using microplate Alamar Blue assays as described (MABA; [Collins, L. & Franzblau, S. (1997) Microplate Alamar Blue assay versus BACTEC 460 system for high-throughput screening of compounds against Mycobacterium tuberculosis and Mycobacterium avium. Antimicrob. Agents Chemother. 41, 1004-1009]).
# [3] = system: Vero E6 ATCC CRL1586 cells; assay: Mammalian-cell cytotoxicity, minimal cytotoxic concentration (CellTiter96)
# Protocol: Minimal cytotoxic concentrations (MCCs) against mammalian cells in culture were determined using Vero E6 ATCC CRL1586 cells and the CellTiter96 assay kit (Promega, Inc.). […]
# [4] = system: Mycobacterium avium ATCC 25291; assay: Microplate Alamar Blue assay (MABA) MIC, M. avium; conditions: ATCC25291, M. avium ATCC 25291
# Source text: as §1
Structure (SMILES),MIC [1],MIC [2],MCC mammalian cells Vero E6 ATCC CRL1586 [3],MIC [4]
"O=C(NC(Cc1ccccc1)C(=O)Nc1cccc2cc[nH]c12)c1ccccc1F (stereo not drawn) [IX-96, N-(1-((1H-indol-7-yl)amino)-1-oxo-3-phenylpropan-2-yl)-2-fluorobenzamide]",0.78 µg/mL,12.5 µg/mL,44 µg/mL,25 µg/mL
"O=C(NC(Cc1ccccc1)C(=O)Nc1cccc2cnccc12)c1ccccc1F (stereo not drawn) [IX-57, 2-fluoro-N-(1-(isoquinolin-5-ylamino)-1-oxo-3-phenylpropan-2-yl)benzamide]",0.39 µg/mL,6.25 µg/mL,79 µg/mL,12.5 µg/mL
CCc1cccc(NC(=O)C(Cc2ccccc2)NC(=O)c2ccccc2)c1C (stereo not drawn) [I-116],0.78 µg/mL,6.25 µg/mL,90 µg/mL,6.25 µg/mL
"O=C(NC(Cc1ccccc1)C(=O)Nc1cc(F)ccc1OCF)c1ccccc1F (stereo not drawn) [IX-177, 2-fluoro-N-(1-((5-fluoro-2-(fluoromethoxy)phenyl)amino)-1-oxo-3-phenylpropan-2-yl)benzamide]",0.39 µg/mL,0.39 µg/mL,>100 µg/mL,0.78 µg/mL
Cc1c(NC(=O)C(Cc2ccccc2)NC(=O)c2ccccc2)cccc1C(C)C (stereo not drawn) [I-138],0.78 µg/mL,6.25 µg/mL,>100 µg/mL,> 50 µg/mL
"CN1CCN(c2ccccc2NC(=O)C(Cc2ccccc2)NC(=O)c2ccccc2)CC1 (stereo not drawn) [IX-151, N-(1-((2-(4-methylpiperazin-1-yl)phenyl)amino)-1-oxo-3-phenyl-propan-2-yl)benzamide]",0.78 µg/mL,12.5 µg/mL,35 µg/mL,12.5 µg/mL
"Cc1ccc(Cl)cc1NC(=O)C(Cc1ccc(O)cc1)NC(=O)c1ccccc1 (stereo not drawn) [IX-51, N-(1-((5-chloro-2-methylphenyl)amino)-3-(4-hydroxyphenyl)-1-oxopropan-2-yl)benzamide]",0.78 µg/mL,3.12 µg/mL,60 µg/mL,6.25 µg/mL
"O=C(NC(Cc1ccccc1)C(=O)Nc1ccccc1OC(F)F)c1ccccc1F (stereo not drawn) [IX-101, N-(1-((2-(difluoromethoxy)phenyl)amino)-1-oxo-3-phenylpropan-2-yl)-2-fluorobenzamide]",0.39 µg/mL,6.25 µg/mL,>100 µg/mL,6.25 µg/mL
"O=C(NC(Cc1ccccc1)C(=O)Nc1cccc2[nH]ncc12)c1cccc2[nH]ccc12 (stereo not drawn) [IX-241, N-(1-((1H-indazol-4-yl)amino)-1-oxo-3-phenylpropan-2-yl)-1H-indole-4-carboxamide]",0.78 µg/mL,25 µg/mL,36 µg/mL,12.5 µg/mL
"O=C(NC(Cc1ccc(O)cc1)C(=O)Nc1cccc2c1CCCC2)c1ccccc1 (stereo not drawn) [IX-6, N-(3-(4-hydroxyphenyl)-1-oxo-1-((5,6,7,8-tetrahydronaphthalen-1-yl)amino)propan-2-yl)benzamide]",1.56 µg/mL,6.25 µg/mL,21 µg/mL,6.25 µg/mL
"COc1ccccc1NC(=O)C(Cc1ccc(O)cc1)NC(=O)c1ccccc1 (stereo not drawn) [IX-26, N-(3-(4-hydroxyphenyl)-1-((2-methoxyphenyl)amino)-1-oxopropan-2-yl)benzamide]",1.25 µg/mL,25 µg/mL,>100 µg/mL,50 µg/mL
"O=C(NC(Cc1ccccc1)C(=O)Nc1cccc2cn[nH]c12)c1ccccc1 (stereo not drawn) [IX-39, N-(1-((1H-indazol-7-yl)amino)-1-oxo-3-phenylpropan-2-yl)benzamide]",1.56 µg/mL,> 50 µg/mL,20 µg/mL,> 50 µg/mL
"O=C(NC(Cc1ccc(O)cc1)C(=O)Nc1cc(F)ccc1N1CCNCC1)c1cccs1 (stereo not drawn) [IX-222, N-(1-((5-fluoro-2-(piperazin-1-yl)phenyl)amino)-3-(4-hydroxyphen-yl)-1-oxopropan-2-yl)thiophene-2-carboxamide]",0.78 µg/mL,1.56 µg/mL,38 µg/mL,1.56 µg/mL
"O=C(NC(Cc1ccccc1)C(=O)Nc1ccccc1N1CCOCC1)c1ccccc1F (stereo not drawn) [IX-152, 2-fluoro-N-(1-((2-morpholinophenyl)amino)-1-oxo-3-phenylpropan-2-yl)benzamide]",0.073 µg/mL,1.56 µg/mL,90 µg/mL,3.12 µg/mL
"CC(=O)Oc1ccc(CC(NC(=O)c2ccccc2F)C(=O)Nc2ccccc2N2CCOCC2)cc1 (stereo not drawn) [IX-180, 4-(2-(2-fluorobenzamido)-3-((2-morpholinophenyl)amino)-3-oxopropyl)phenyl acetate]",0.097 µg/mL,1.56 µg/mL,91 µg/mL,6.25 µg/mL

# Source: patent US9919998B2, “Antibacterial agents: Nα-aroyl-N-aryl-phenylalaninamides” (priority 2014, dated 2018)
